Ki data for one molecule are collected here from BindingDB's records for doi:10.1016/S0960-894X(00)80383-2 (1992).

Structures can show the parent of a compound that is named as a salt.

This assay is described as follows: Concentration required to inhibit the enzyme cathepsin.

Regarding `CCC[C@H](NC(=O)[C@H](Cc1ccc(OC)cc1)NC(=O)CC(C)C)C(=O)N[C@@H](CC1CCCCC1)C(=O)C(F)(F)CN` [(S)-2-[(S)-3-(4-Methoxy-phenyl)-2-(3-methyl-butyrylamino)-propionylamino]-pentanoic acid ((S)-4-amino-1-cyclohexylmethyl-3,3-difluoro-2-oxo-butyl)-amide; hydrochloride], the affinity, expressed as Ki, was 4 µM. In other words, the single-digit micromolar range.

As a reminder, the Ki is a measure of affinity in units of concentration, obtained from inhibition or displacement.
